Reference: US8586571B2, “Heterocyclic compound” (Takeda Pharmaceutical Company Limited, priority 2007, dated 2013)

Assays:
[1] = target: RBP4 (Mus musculus (Mouse), UniProt Q00724); test: Blood RBP4 lowering action in C57BL/6J mouse (plasma RBP4 by ELISA); assay type: in vivo; conditions: mean±SD (n=5); for RBP4 (% of initial/Control) 4 hr later: 4 hr after single oral 50 mg/kg; for RBP4 (% of initial/Control) 7 hr later: 7 hr after single oral 50 mg/kg; for RBP4 (% of initial/Control) 24 hr later: 24 hr after single oral 50 mg/kg
Protocol: A blood RBP4 lowering action of the compound of the present invention was evaluated using C57BL/6J mouse.
Male 7- to 15-week-old C57BL/6J mice (Charles River Laboratories Japan Inc.) were individually bred for acclimation for 4-6 days under conditions with free access to CE-2 solid food (CLEA Japan, Inc.), and grouped based on the body weight (5 per group). The next day of grouping, blood samples were collected from the orbital venous plexus, and plasma was separated (0 hr value). Thereafter, the test compounds (Examples 12, 143, 164, 189, 197, 207 and 215) were orally administered at a dose of 50 mg/kg (solvent: 0.5% methylcellulose solution (10 mL/kg)). At 4, 7 and 24 hr after administration of the compounds, blood samples were collected from the orbital venous plexus, and plasma was separated. A 0.5% methylcellulose solution (10 mL/kg) was orally administered to the control group.
The RBP4 level of the collected plasma was measured by ELISA. RBP4 was quantified by the following steps using a rabbit anti-mouse RBP4 polyclonal antibody (Hokudo Co., Ltd). A 96 well ELISA plate was coated with 50 μg/mL of the antibody (100 μL) and stood at 4° C. overnight. After blocking with BlockAce (DAINIPPON PHARMACEUTICAL CO., LTD.), mouse RBP4 or a sample (100 μL) was added and the plate was stood at room temperature for 2 hr. After washing with PBS-0.5% Tween 20, HRP-labeled anti-RBP4 antibody (prepared by labeling RBP4 polyclonal antibody (Hokudo Co., Ltd) with HRP (DOJINDO LABORATORIES)) was added by 100 μL, and the plate was stood at room temperature for 1 hr. After washing, TMB (Dako Cytomations) was added, and the mixture was stood at room temperature for 20 min to allow color development, and the reaction was quenched with 2N sulfuric acid. Thereafter, the absorbance at A450 nm was measured on a platereader. The amount of change from the initial value of each animal was determined as a relative value from the control group (% of initial/Control) at each time point. The results are shown in the following in mean±standard deviation (n=5).

[2] = target: human RBP4 (Homo sapiens (Human), UniProt P02753); test: Binding assay by Retinol-RBP4-TTR ELISA (human-type ELISA); conditions: inhibition of binding of RBP4 with retinol and TTR; retinol 0.5 μM; read-out: human RBP4 binding inhibitory activity (IC50 nM)
Protocol: The action of the compound of the present invention to inhibit binding of RBP4 and retinol and TTR was evaluated using the Retinol-RBP4-TTR ELISA (human-type ELISA) system shown below.
Binding Assay by Retinol-RBP4-TTR ELISA
This ELISA system detects a complex of retinol, RBP4 and TTR by Streptoavidin-Biotin reaction.
His-tagged human RBP4 used was prepared in the above-mentioned 1C.
Biotinylate human TTR used was prepared in the above-mentioned 1E.
Streptavidin (20 μl) (10 μg/ml Streptavidin type II (Wako Pure Chemical Industries, Ltd.), 10 mM Tris-HCl (pH 7.5), 10 mM NaCl) was added to a 384 well black maxisorp plate (Nunc), and the plate was subjected to centrifugation (1000 rpm, 1 min) and coated overnight at 4° C. The plate was washed twice with PBST (PBS, 0.05% Tween 20, 100 μl/well) and blocked with 25% Block Ace (Snow Brand Milk Products Co., Ltd., PBS, 100 μl/well). The plate was subjected to centrifugation (1000 rpm, 1 min) and incubated at room temperature for 4 hr or overnight at 4° C. The plate was washed twice with PEST (PBS, 0.05% Tween 20, 100 μl/well), and biotinylated human TTR (stock solution concentration 1.3 mg/ml) diluted 1000-fold with PBST was added at 20 μl/well. The plate was subjected to centrifugation (1000 rpm, 1 min) and stood still at room temperature for 1.5 hr or overnight at 4° C. The plate was washed 3 times with PBST (100 μl/well), and His-tagged human RBP4 (stock solution concentration 0.96 mg/ml) diluted 4000-fold with a reaction buffer (50 mM Tris-HCl, 150 mM NaCl, 0.005% Tween 20, 1 mM DTT, 0.1% BSA) was added at 10 μl/well. The dilution series (8 doses from 10 mM, 200-fold concentration) of the compound was prepared with DMSO, and 1 μl of each was added to a reaction buffer (200 μl) containing retinol (0.5 μM) (Sigma-Aldrich Co.). A reaction buffer (200 μl) containing retinol and added with DMSO was used as a positive control, and reaction buffer (200 μl) free of retinol and added with DMSO was used as a negative control. Mixed solutions of retinol and the compound were added to the plate at 15 μl/well. The mixture was stirred in a platemixer subjected to centrifugation (1000 rpm, 1 min) and reacted at room temperature for 2 hr. A 35% Block Ace solution diluted with the reaction buffer was added at 10 μl/well, centrifuged (1000 rpm, 1 min) and reacted at room temperature for 30 min. The plate was washed 3 times with PBST (100 μl/well) and SuperSignal ELISA Femto Maximum Sensitivity Substrate reagent (PIERCE) was added at 30 μl/well, and the luminescence was measured by a platereader (Wallac).
The binding inhibitory rate of the compound was determined by 100×(test compound value-negative control value)/(positive control value-negative control value). The binding activity (IC50) was calculated from the binding inhibitory rate at each compound concentration using a graph drawing software, Prism (GraphPad Software Inc.).

[3] = tested on: Zucker fa/fa rat; test: Anti-diabetes action using Zucker fa/fa rat (Takeda Pharmaceutical Company Limited); assay type: in vivo; conditions: oral 30 mg/kg for 2 weeks
Protocol: An anti-diabetes action and a blood triglyceride (hereinafter TG)-lowering action of the compound of the present invention were evaluated using Zucker fa/fa rats.
Male 7-week-old Zucker fa/fa rats (Takeda Pharmaceutical Company Limited) were bred in group on CE-2 solid food (CLEA Japan, Inc.) until 7-week-old, thereafter bred on high-fat diet D06110702 (LSG Corporation) for acclimation under conditions with free access to food. At 11-week-old, the rats were grouped based on the body weight, blood glucose level, glycated hemoglobin level, blood RBP4 level and blood insulin level value (6 per group). Thereafter, the test compound (Example 143) was orally administered at a dose of 30 mg/kg (solvent: 0.5% methylcellulose solution (5 mL/kg)) for 2 weeks. The next day of the final administration of the compound, blood samples were collected from the tail vein, and plasma was separated. Using the collected plasma, (1) RBP4 concentration and (2) glycated hemoglobin level were measured. (1) was quantified according to the protocol described in Experimental Example 2. (2) was measured using Tosoh Corporation automatic glycohemoglobin analyzer (HLC-723 GHbV A1c2.2 or HLC-723G7 GHbV A1c2.2).
A 0.5% methylcellulose solution (5 mL/kg) was orally administered to the control group. […] The results are shown in the is following in mean±standard deviation (n=6). In the following Table, glycated hemoglobin change is obtained by subtracting the value before administration from that after administration.

RBP4 (% of initial/Control) 4 hr later [1]	RBP4 (% of initial/Control) 7 hr later [1]	RBP4 (% of initial/Control) 24 hr later [1]	IC50 [2] [nM]	Compound	further results
39.2 ± 1.4 % of initial/Control	29.2 ± 1.0 % of initial/Control	40.4 ± 3.0 % of initial/Control	40	CC(C)(C)c1ccccc1OCC1CCN(C(=O)CC(=O)O)C1 (stereo not drawn) [Example 197, 3-{3-[(2-tert-butylphenoxy)methyl]pyrrolidin-1-yl}-3-oxopropanoic acid]	
46.7 ± 6.6 % of initial/Control	36.2 ± 4.2 % of initial/Control	45.2 ± 9.1 % of initial/Control	23	CC(C)(C)c1cc(F)ccc1OCC1CN(C(=O)CC(=O)O)C1 [Example 143, 3-{3-[(2-tert-butyl-4-fluorophenoxy)methyl]azetidin-1-yl}-3-oxopropanoic acid]	blood RBP4 concentration (result in words) ([3]; versus control): significant decrease; glycated hemoglobin (result in words) ([3]; versus control): significant decrease; RBP4 ([3]; plasma, high-fat diet, mean±SD (n=6)): 7.3 ± 1.2 µg/mL; glycated hemoglobin change(%) ([3]; value after minus before administration, mean±SD (n=6)): 0.6 ± 0.4%
			20	CC(C)(C)c1cc(F)ccc1OC1CN(C(=O)CCC(=O)O)C1 [Example 80, 4-[3-(2-tert-butyl-4-fluorophenoxy)azetidin-1-yl]-4-oxobutanoic acid]	
55.6 ± 1.0 % of initial/Control	49.0 ± 1.3 % of initial/Control	69.5 ± 6.6 % of initial/Control	12	CC(C)(C)c1cc(Cl)ccc1OCC1CN(C(=O)C(=O)O)C1 [Example 207, {3-[(2-tert-butyl-4-chlorophenoxy)methyl]azetidin-1-yl}(oxo)acetic acid]	
64.3 ± 1.2 % of initial/Control	60.6 ± 0.6 % of initial/Control	64.7 ± 4.3 % of initial/Control	34	CC(C)(C)c1cc(F)ccc1OCC1CCN(C(=O)CC(=O)O)C1 (stereo not drawn) [Example 215, 3-{3-[(2-tert-butyl-4-fluorophenoxy)methyl]pyrrolidin-1-yl}-3-oxopropanoic acid]	

Further lines, the compound ahead of its results:

Compound	RBP4 (% of initial/Control) 4 hr later [1]	RBP4 (% of initial/Control) 7 hr later [1]	RBP4 (% of initial/Control) 24 hr later [1]	IC50 [2] [nM]	further results
CC(C)(C)c1cc(Cl)ccc1OC1CN(C(=O)CCC(=O)O)C1 [Example 189, 4-[3-(2-tert-butyl-4-chlorophenoxy)azetidin-1-yl]-4-oxobutanoic acid]	51.5 ± 1.7 % of initial/Control	42.1 ± 1.3 % of initial/Control	69.7 ± 9.6 % of initial/Control	71	
CC(C)(C)c1cc(Cl)ccc1OC1CN(C(=O)c2ccccn2)C1 [Example 164, 2-{[3-(2-tert-butyl-4-chlorophenoxy)azetidin-1-yl]carbonyl}pyridine]	55.6 ± 6.3 % of initial/Control	46.4 ± 7.2 % of initial/Control	74.5 ± 8.9 % of initial/Control	15	
CC(C)(C)c1ccccc1SC1CN(C(=O)c2ccccn2)C1 [Example 17, (3-(2-tert-butylphenylthio)azetidin-1-yl)(pyridin-2-yl)methanone]				10	
CC(C)(C)c1ccccc1OC1CN(C(=O)CC(=O)O)C1 [Example 10, 3-(3-(2-tert-butylphenoxy)azetidin-1-yl)-3-oxopropanoic acid]				36	
CCCCCS(=O)(=O)NC(=O)C(=O)N1CCC(COc2ccccc2C(C)(C)C)CC1 [Example 121, 2-{4-[(2-tert-butylphenoxy)methyl]piperidin-1-yl}-2-oxo-N-(pentylsulfonyl)acetamide]				790	
CC(C)(C)c1ccccc1S(=O)(=O)C1CN(C(=O)c2ccccc2)C1 [Example 20, (3-(2-tert-butylphenylsulfonyl)azetidin-1-yl)(phenyl)methanone]				290	
CC(C)(C)c1ccccc1OC1CCN(C(=O)c2ccccn2)CC1 [Example 50, (4-(2-tert-butylphenoxy)piperidin-1-yl)(pyridin-2-yl)methanone]				5	
CC(C)(C)c1ccccc1OC1CN(C(=O)C2(C(=O)O)CC2)C1 [Example 14, 1-(3-(2-tert-butylphenoxy)azetidine-1-carbonyl)cyclopropanecarboxylic acid]				24	
CC(C)(C)c1cc(F)ccc1OC1CN(C(=O)c2ccccn2)C1 [Example 6, (3-(2-tert-butyl-4-fluorophenoxy)azetidin-1-yl)(pyridin-2-yl)methanone]				20	
